Experimental data reported in patent US9458499B2, “Nucleic acid binding dyes and uses therefor” (PROMEGA CORPORATION, priority 2009, dated 2016).
Counter-ions that a name gives are not always drawn.

Key:
Format in all cases: physicochemical
dsDNA = assay: Quantum yield, absorbance and emission of dyes with dsDNA; details: for absorbance λEx dsDNA / emission λmaxEM dsDNA: Table 1; for Em λ (ds DNA): Example 1
ds DNA = assay: Relative brightness of stains with ds DNA (protocol of Nygren et al.)
Method: (§1) The relative brightness of certain compounds (Table 2) was determined based on the protocol in Nygren, J., Svanvik, N., Kubista, M. (1998) Biopolymers, Vol. 46, 39-51, which is incorporated by reference herein.

ss DNA = assay: Relative brightness of stains with ss DNA (protocol of Nygren et al.)
Method: as §1

quantum yield (Φ) dsDNA (dsDNA) | absorbance λEx dsDNA (dsDNA) | emission λmaxEM dsDNA (dsDNA) | Em λ (ds DNA) (dsDNA) | SMILES | Relative Brightness ds DNA (ds DNA) | Relative Brightness ss DNA (ss DNA)
0.34 | 494 nm | 535 |  | CN(C)CCN(Cc1ccccc1)c1cc(/C=C2/Sc3cccc4c3N2CCC4)c2ccccc2[n+]1-c1ccccc1 [PBI 3666, 2-(benzyl(2-(dimethylamino)ethyl)amino)-4-((5,6-dihydrothiazolo[5,4,3-ij]quinolin-2(4H)-ylidene)methyl)-1-phenylquinolinium trifluoroacetate] |  | 
0.70 | 498 nm | 529 | 529 nm | CCCN(CCCN(C)C)C1=C/C(=C\c2sc3cccc4c3[n+]2CCC4)c2ccccc2N1c1ccccc1 [PBI 3654, 1-((2-((3-(Dimethylamino)propyl)(propyl)amino)-1-phenylquinolin-4(1H)-ylidene)methyl)-7,8-dihydro-6H-thiazolo[5,4,3-ij]quinolin-9-ium] |  | 
0.34 | 499 nm | 533 | 533 nm | CCCN(CCCN(C)C)c1cc(/C=C2/Sc3cccc4c3N2CCC4)c2ccccc2[n+]1CCCc1ccccc1 [PBI 3679, 4-((5,6-Dihydrothiazolo[5,4,3-ij]quinolin-2(4H)-ylidene)methyl)-2-((3-(dimethylamino)propyl)(propyl)amino)-1-(3-phenylpropyl)quinolinium] |  | 
0.43 | 504 nm | 531 | 531 nm | CN(C)CCCN(CCCN(C)C)C1=C/C(=C\c2sc3cccc4c3[n+]2CCC4)c2ccccc2N1c1ccccc1 [PBI 3646, 1-((2-(Bis(3-(dimethylamino)propyl)amino)-1-phenylquinolin-4(1H)-ylidene)methyl)-7,8-dihydro-6H-thiazolo[5,4,3-ij]quinolin-9-ium] |  | 
0.39 | 466 nm | 529 | 529 nm | CN(C)CCN(C)C1=C/C(=C\c2sc3cccc4c3[n+]2CCC4)c2ccccc2N1c1ccccc1 [compound 3568, 1-((2-((2-(Dimethylamino)ethyl)(methyl)amino)-1-phenylquinolin-4(1H)-ylidene)methyl)-7,8-dihydro-6H-thiazolo[5,4,3-ij]quinolin-9-ium] |  | 
 |  |  |  | COc1ccc2c(/C=C3\Sc4cccc5c4N3CCC5)cc(N(CCC[N+](C)(C)C)CCC[N+](C)(C)C)[n+](Cc3ccccc3)c2c1 [PBI 4050, 1-Benzyl-2-(bis(3-(trimethylammonio)propyl)amino)-4-((5,6-dihydrothiazolo[5,4,3-ij]quinolin-2(4H)-ylidene)methyl)-7-methoxyquinolinium] | 0.63 | 1.23
 |  |  |  | COc1ccc2c(/C=C3\Sc4cccc5c4N3CCC5)cc(N(CCC[N+](C)(C)C)CCC[N+](C)(C)C)[n+](C)c2c1 [PBI 4052, 2-(bis(3-(trimethylammonio)propyl)amino)-4-((5,6-dihydrothiazolo[5,4,3-ij]quinolin-2(4H)-ylidene)methyl)-7-methoxy-1-methylquinolinium] | 0.74 | 2.41
0.48 | 494 nm | 527 |  | CCN(CC)c1cc(/C=C2\Sc3cccc4c3N2CCC4)c2ccccc2[n+]1-c1ccccc1 [PBI 3676, 2-(diethylamino)-4-((5,6-dihydrothiazolo[5,4,3-ij]quinolin-2(4H)-ylidene)methyl)-1-phenylquinolinium trifluoroacetate] |  | 
0.31 | 503 nm | 535 | 535 nm | CN(C)CCCN(CCCN(C)C)C1=C/C(=C\c2sc3cccc4c3[n+]2CCC4)c2ccccc2N1CCCc1ccccc1 [PBI 3675, 1-((2-(bis(3-(dimethylamino)propyl)amino)-1-(3-phenylpropyl)quinolin-4(1H)-ylidene)methyl)-7,8-dihydro-6H-thiazolo[5,4,3-ij]quinolin-9-ium] |  | 
0.68 | 494 nm | 529 |  | CCCN(CCCN(C)C)c1cc(/C=C2\Sc3cccc4c3N2CCC4)c2ccccc2[n+]1C [PBI 3678, 1-methyl-4-((5,6-dihydrothiazolo[5,4,3-ij]quinolin-2(4H)-ylidene)methyl)-2-((3-(dimethylamino)propyl)(propyl)amino)quinolinium trifluoroacetate] |  | 
 |  |  |  | COc1ccc2c(/C=C3\Sc4cccc5c4N3CCC5)cc(N(C)C)[n+](Cc3ccccc3)c2c1 [PBI 4051, 1-benzyl-4-((5,6-dihydrothiazolo[5,4,3-ij]quinolin-2(4H)-ylidene)methyl)-2-(dimethylamino)-7-methoxyquinolinium] | 0.67 | 1.10
0.68 | 494 nm | 529 |  | CCCCN(CCCN(C)C)c1cc(/C=C2/Sc3cccc4c3N2CCC4)c2ccccc2[n+]1-c1ccccc1 [PBI 3667, 2-(butyl(3-(dimethylamino)propyl)amino)-4-((5,6-dihydrothiazolo[5,4,3-ij]quinolin-2(4H)-ylidene)methyl)-1-phenylquinolinium trifluoroacetate] |  | 
0.2 | 504 nm | 529 | 529 nm | CN1C=C/C(=C\c2sc3cccc4c3[n+]2CCC4)c2ccccc21 [compound 3632, 1-((1-Methylquinolin-4(1H)-ylidene)methyl)-7,8-dihydro-6H-thiazolo[5,4,3-ij]quinolin-9-ium] |  | 
 |  |  |  | CCCN(CCC[N+](C)(C)C)c1cc(/C=C2\Sc3cccc4c3N2CCC4)c2ccc(OC)cc2[n+]1-c1ccccc1 [PBI 4054, 4-((5,6-dihydrothiazolo[5,4,3-ij]quinolin-2(4H)-ylidene)methyl)-7-methoxy-1-phenyl-2-(propyl(3-(trimethylammonio)propyl)amino)quinolinium] | 1.19 | 3.10
 |  |  |  | CCCN(CCC[N+](C)(C)C)c1cc(/C=C2\Sc3cccc4c3N2CCC4)c2ccc(OC)cc2[n+]1C [compound 4053, 4-((5,6-dihydrothiazolo[5,4,3-ij]quinolin-2(4H)-ylidene)methyl)-7-methoxy-1-methyl-2-(propyl(3-(trimethylammonio)propyl)amino)quinolinium] | 1.26 | 1.82
 |  |  |  | CCCN(CCCN(C)C)c1cc(/C=C2/Sc3ccccc3N2C)c2ccccc2[n+]1-c1ccccc1 [SYBR Green 1, reference compound] | 1 | 
0.72 | 494 nm | 533 |  | CCCN(CCCN(C)C)c1cc(/C=C2\Sc3cccc4c3N2CCC4)c2ccccc2[n+]1Cc1ccccc1 [PBI 3677, 1-benzyl-4-((5,6-dihydrothiazolo[5,4,3-ij]quinolin-2(4H)-ylidene)methyl)-2-((3-(dimethylamino)propyl)(propyl)amino)quinolinium trifluoroacetate] |  | 
